This experiment has as its target T1, NF-κB p50 (Homo sapiens, UniProt P19838).
T1 sequence (P19838 1-968): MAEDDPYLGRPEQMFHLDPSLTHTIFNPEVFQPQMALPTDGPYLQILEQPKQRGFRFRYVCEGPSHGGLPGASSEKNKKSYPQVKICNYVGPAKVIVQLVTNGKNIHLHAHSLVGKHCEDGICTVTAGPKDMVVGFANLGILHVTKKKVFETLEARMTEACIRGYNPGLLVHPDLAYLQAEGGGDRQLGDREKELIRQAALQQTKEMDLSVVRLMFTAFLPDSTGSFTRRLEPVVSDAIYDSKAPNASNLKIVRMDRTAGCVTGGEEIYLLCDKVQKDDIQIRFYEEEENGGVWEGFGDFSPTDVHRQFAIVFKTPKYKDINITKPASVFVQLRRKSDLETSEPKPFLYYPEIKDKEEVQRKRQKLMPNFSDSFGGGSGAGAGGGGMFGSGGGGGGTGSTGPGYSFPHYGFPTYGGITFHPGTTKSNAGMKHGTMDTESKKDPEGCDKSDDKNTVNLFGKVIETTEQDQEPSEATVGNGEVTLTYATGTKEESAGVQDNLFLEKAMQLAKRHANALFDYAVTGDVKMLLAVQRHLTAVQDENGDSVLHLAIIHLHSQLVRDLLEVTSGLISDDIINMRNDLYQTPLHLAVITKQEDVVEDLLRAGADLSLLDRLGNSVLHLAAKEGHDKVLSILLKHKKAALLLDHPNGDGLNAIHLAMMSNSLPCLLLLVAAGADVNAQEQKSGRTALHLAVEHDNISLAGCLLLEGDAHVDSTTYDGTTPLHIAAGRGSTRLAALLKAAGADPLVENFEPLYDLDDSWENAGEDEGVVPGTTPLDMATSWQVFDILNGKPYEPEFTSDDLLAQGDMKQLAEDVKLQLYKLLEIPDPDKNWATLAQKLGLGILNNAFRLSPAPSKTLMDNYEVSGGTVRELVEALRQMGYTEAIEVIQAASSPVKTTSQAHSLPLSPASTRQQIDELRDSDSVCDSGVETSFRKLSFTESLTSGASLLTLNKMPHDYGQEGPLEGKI
Description: Electrochemiluminescence biosensor of recombinant p50 binding to dsDNA.

Each structure is given as a SMILES string.

Turning to `O=C(NC1=CC(=O)[C@H]2O[C@H]2[C@H]1O)c1ccccc1O` [(−)-DHMEQ], the IC50 turned out to be 0.83 nM.

Usually IC50 stands for the concentration that inhibits the measured activity by half.

The record behind these values is paper PMC7772087 (Biosensors & Bioelectronics, 2020).
